Consider one compound from patent publication US20240207461A1, “RADIOACTIVE ANTITUMOR AGENT” (NIHON MEDI-PHYSICS CO., LTD., priority 2021, published 2024).

Series [1] has as its system CD-1 mice. The series can be described thus: Urinary renal toxicity marker (urinary NGAL/creatinine ratio by ELISA). In kind it is in vivo. Particulars: urine 16 weeks after administration of ^225Ac-labeled antibody (15 kBq/mouse), n=4 to 5. On the procedure:
Whether combined administration of a ^225Ac-labeled anti-MUC5AC humanized antibody prepared using ^225Ac-labeled DOTAGA-DBCO and a compound expected to have a renal protective effect (renal protective agent) reduces delayed renal toxicity caused by radiation emitted from ^225Ac or ^225Ac daughter nuclide was evaluated. […]
During the observation period, body weight measurement, blood cell measurement, and renal toxicity marker measurement were performed over time and signs of toxicity were evaluated.
Urine was collected from each individual 16 weeks after the administration of the ^225Ac-labeled anti-MUC5AC humanized antibody, and neutrophil gelatinase-associated lipocalin (NGAL), and creatinine concentration of the urine samples were measured by ELISA. […] The NGAL value corrected for urine concentration was calculated by dividing the obtained NGAL value by the creatinine value (urinary NGAL/creatinine ratio, hereinafter referred to as urinary N/C ratio). The calculated urinary N/C ratio was confirmed using Stat PreClinica (manufactured by Takumi Information Technology Co., Ltd.) for the homoscedasticity of the measured values. […]

Series [2] relates to CD-1 mice. The series can be described thus: Autopsy and measurement of kidney weight. In kind it is in vivo, mouse. Particulars: at autopsy, 184 days from administration. On the procedure:
The ^225Ac-labeled anti-MUC5AC humanized antibody produced in Production Example 3 was administered to CD-1 mice (5 weeks old, male, manufactured by Charles River Japan), each group n=5 at a dose of 15 kBq/mouse and, as a renal protective agent, any of Zn-DTPA, furosemide, spironolactone, and eplerenone was administered in combination at the dosage, administration method, administration frequency, and initial administration timing shown in Table 1. That is, a group to which only ^225Ac-labeled anti-MUC5AC humanized antibody was administered (Comparative Example 1), a group to which ^225Ac-labeled anti-MUC5AC humanized antibody and each renal protective agent administered in combination (Example 1 to Example 7), and a group to which only a renal protective agent is administered without administration of ^225Ac-labeled anti-MUC5AC humanized antibody (Comparative Examples 2 to 5) were established. The dose of the ^225Ac-labeled anti-MUC5AC humanized antibody, each renal protective agent, and feeding conditions are shown in Table 1. The sustained release tablets used for the transdermal administration group of each renal protective agent were those manufactured by Innovative Research of America, and the mixed feed containing 0.004% of each renal protective agent used was manufactured by Oriental Yeast Co., Ltd.
On the final day of the observation period (184 days from the day of administration of the ^225Ac-labeled anti-MUC5AC humanized antibody), euthanasia and autopsy were performed by exsanguination under isoflurane anesthesia. After autopsy, the kidneys were collected and weighed. The obtained organ weight measurement results (excluding Example 7) were confirmed for the homoscedasticity of the measured values. Since homoscedasticity was confirmed for all items, a significant difference test was performed using the Tukey method, which is a parametric test. The significance level was set to 5%.

`O=C([O-])CN(CCN(CC(=O)[O-])CC(=O)[O-])CCN(CC(=O)[O-])CC(=O)[O-].[Na+].[Na+].[Na+].[Zn+2]` [Comparative Example 2, Zn-DTPA]: the “N/C ratio (urinary NGAL/creatinine ratio)” value with CD-1 mice [1] is recorded as 1.1 ± 0.60. Also, in the series on CD-1 mice [2], the body weight stood at 44.48 ± 4.5 g, the kidney weight came to 0.75 ± 0.12 g and the “kidney weight/body weight ratio” value was found to be 0.017 ± 0.001.
